# Laboratory results reported in PMC8138579, “Screening of Anti-Lipase Components of Artemisia argyi Leaves Based on Spectrum-Effect Relationships and HPLC-MS/MS” (Frontiers in Pharmacology, 2021).
# Molecular target: T1, Porcine pancreatic lipase (type II) (Sus scrofa, UniProt P00591)
# T1 construct: gene PNLIP; native commercial porcine pancreas preparation (Sigma-Aldrich, type II), no added colipase stated; human 1LPA used only for docking
# T1 sequence (P00591 1-450): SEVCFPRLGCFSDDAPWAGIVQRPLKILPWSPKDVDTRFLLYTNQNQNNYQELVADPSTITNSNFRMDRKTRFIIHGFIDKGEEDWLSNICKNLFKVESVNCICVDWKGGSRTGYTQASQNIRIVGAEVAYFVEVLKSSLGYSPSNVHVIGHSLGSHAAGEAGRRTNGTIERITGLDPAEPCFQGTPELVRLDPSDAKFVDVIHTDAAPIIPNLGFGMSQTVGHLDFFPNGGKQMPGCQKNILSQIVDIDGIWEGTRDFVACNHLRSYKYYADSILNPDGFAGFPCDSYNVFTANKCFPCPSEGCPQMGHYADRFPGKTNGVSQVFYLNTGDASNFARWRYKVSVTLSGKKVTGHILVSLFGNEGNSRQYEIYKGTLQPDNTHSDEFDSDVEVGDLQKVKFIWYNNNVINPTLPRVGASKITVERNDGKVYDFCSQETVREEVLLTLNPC
# Experiment: fluorometric lipase assay, 4-methylumbelliferone release
# Type: biochemical
# Text: fluorometric lipase assay, 4-methylumbelliferone release on Porcine pancreatic lipase (type II) | IC50 values of neochlorogenic acid, chlorogenic acid, isochlorogenic acid B and isochlorogenic acid A
row,IC50 [µM],SMILES
1,429,"O=C(/C=C/c1ccc(O)c(O)c1)O[C@@H]1C[C@@](O)(C(=O)O)C[C@@H](O)[C@@H]1O [P1, neochlorogenic acid]"
2,322,"O=C(/C=C/c1ccc(O)c(O)c1)O[C@@H]1C[C@](O)(C(=O)O)C[C@@H](O)[C@H]1O [P3, chlorogenic acid]"
3,234,"O=C(/C=C/c1ccc(O)c(O)c1)O[C@H]1[C@H](O)C[C@](O)(C(=O)O)C[C@H]1OC(=O)/C=C/c1ccc(O)c(O)c1 [P7, isochlorogenic acid B]"
4,157,"O=C(/C=C/c1ccc(O)c(O)c1)O[C@@H]1C[C@](O)(C(=O)O)C[C@@H](OC(=O)/C=C/c2ccc(O)c(O)c2)[C@H]1O [P8, isochlorogenic acid A]"
